From patent US20250206761A1, “HALOINDOLE MACROCYCLIC COMPOUNDS FOR THE TREATMENT OF CANCER” (Hoffmann-La Roche Inc., priority 2022, published 2025)

How the values were obtained:
[1] = target: KRAS G12V binding to BRAF (Homo sapiens (Human), UniProt P01116+P62937, G12V); assay: KRAS-BRAF with CYPA (500 nM) interaction assay (TR-FRET), G12V; type: biochemical
Outline: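 A TR-FRET assay measured how compound, in the presence of CYPA, disrupts binding of GMPPNP-loaded 6His-KRAS G12V to BRAF. The buffer contained 25 mM HEPES PH=7.4, 0.002% Tween20, 0.1% BSA, 100 mM NaCl, 5 mM MgCl2 and 10 μM GMPPNP. Compounds ran as a 16-point 3-fold dilution series from 10 μM for 3 hours.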

[2] = system: NCI-H358 (ATCC-CRL5807) cells; assay: Cell viability assay, G12C (NCI-H358); type: cell-based, human; settings: Homo sapiens; KRAS cell viability, NCI-H358, 72 hrs, Cell Counting Kit-8
Outline: (§1)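 Seed NCI-H358 5,000/well, AGS and SW620 2,000/well; overnight. Compound, 0.5% DMSO final, 72 hrs. CCK-8 2 hrs, OD450–OD650. IC50: 4-parameter fit.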

KRAS G12C-BRAF complex [3] = target: T1, KRAS G12C-BRAF complex (Homo sapiens (Human), UniProt P01116+P62937, G12C); assay: KRAS G12C-BRAF NanoBit assay; type: cell-based; settings: HEK293 cells, 3 hours of incubation
Description: This assay is to measure the ability of tested compounds in disruption of the KRAS G12C-BRAF complex at the cellular level, we established the NanoBit cellular assay in mammalian HEK293 (ATCC) cells.
HEK293 cells were grown and maintained using DMEM medium (Thermo Fisher Scientific) with 10% fetal bovine serum and 1% penicillin/streptomycin. Both KRAS G12C and BRAF RBD were cloned into the NanoBit vectors ([…] vectors system, Promega) with the orientations SnmBit-KRAS G12C and BRAF RBD-LgBit, respectively, and co-transfected into HEK293 cells. Cells were then selected with 100 μg/mL Hygromycin B (10687010, Thermo Fisher) and Blasticidin (5 μg/mL) for 4 weeks to get the stable cell pool.
On the day of the assay, 75 nL of compound solution was presented in a 384-well assay plate as a 16-point 3-fold dilution starting from a final concentration of 30 μM in DMSO. Then cells were seeded at 10,000 cells/25 μL/well in a 384-well plate. After 3 hours of incubation, 6 μL of volume of Nano-Glo® Live Cell Substrate (Promega) was added into each well. Monitor luminescence using ultra384 model in Envision at 20 minutes. Compounds that facilitate disruption of the KRAS G12C-BRAF RBD complex were identified as those eliciting a decrease of luminescence relative to DMSO control wells.

[4] = target: KRAS G12D binding to BRAF (Homo sapiens (Human), UniProt P01116+P62937, G12D); assay: KRAS-BRAF with CYPA (500 nM) interaction assay (TR-FRET), G12D; type: biochemical
KRAS G12C-BRAF complex [5] = target: T1, KRAS G12C-BRAF complex; assay: KRAS-BRAF with CYPA (500 nM) interaction assay (TR-FRET), G12C; type: biochemical
[6] = system: AGS (ATCC-CRL-1739) cells; assay: Cell viability assay, G12D (AGS); type: cell-based, human; settings: Homo sapiens, KRAS cell viability, 72 hrs, Cell Counting Kit-8
Outline: as §1

Sequence of KRAS G12V binding to BRAF (P01116-2 other isoform, or with tags, fused parts or gaps G12V): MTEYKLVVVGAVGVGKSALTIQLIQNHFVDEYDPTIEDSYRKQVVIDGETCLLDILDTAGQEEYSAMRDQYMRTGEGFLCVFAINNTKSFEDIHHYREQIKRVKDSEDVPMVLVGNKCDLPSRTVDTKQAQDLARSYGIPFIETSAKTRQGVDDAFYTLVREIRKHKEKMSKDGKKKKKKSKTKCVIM
Sequence of KRAS G12V binding to BRAF (P62937 whole entry): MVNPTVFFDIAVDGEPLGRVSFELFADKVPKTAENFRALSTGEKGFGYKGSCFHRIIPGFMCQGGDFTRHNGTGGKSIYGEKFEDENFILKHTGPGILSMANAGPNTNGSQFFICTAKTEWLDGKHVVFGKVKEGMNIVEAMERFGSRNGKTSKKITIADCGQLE
Sequence of KRAS G12D binding to BRAF (P01116-2 other isoform, or with tags, fused parts or gaps G12D): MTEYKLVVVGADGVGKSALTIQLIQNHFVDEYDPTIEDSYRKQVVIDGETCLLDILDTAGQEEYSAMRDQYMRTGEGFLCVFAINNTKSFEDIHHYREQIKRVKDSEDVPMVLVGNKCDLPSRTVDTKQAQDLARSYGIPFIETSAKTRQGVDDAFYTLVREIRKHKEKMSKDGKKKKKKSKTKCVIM
Sequence of KRAS G12D binding to BRAF (P62937 whole entry): as the sequence (P62937 whole entry) above
T1 sequence (P01116-2 other isoform, or with tags, fused parts or gaps G12C): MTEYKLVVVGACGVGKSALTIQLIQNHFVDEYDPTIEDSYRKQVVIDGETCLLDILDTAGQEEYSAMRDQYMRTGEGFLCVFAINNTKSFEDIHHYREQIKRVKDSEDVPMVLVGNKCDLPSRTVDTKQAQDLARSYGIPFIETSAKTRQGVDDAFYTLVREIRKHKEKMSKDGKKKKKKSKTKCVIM
T1 sequence (P62937 whole entry): as the sequence (P62937 whole entry) above

SMILES | IC50 [1] [nM] | IC50 [2] [nM] | IC50 (KRAS G12C-BRAF complex [3]) [nM] | IC50 [4] [nM] | IC50 (KRAS G12C-BRAF complex [5]) [nM] | IC50 [6] [nM]
CO[C@@H](C)c1ncc(N2CCN(C)CC2)cc1-c1c2c3cc(c(F)cc3n1CC(F)(F)F)-c1csc(n1)C[C@H](NC(=O)[C@H](C(C)C)N1CCCC3(CN(C(=O)[C@H](F)Cl)C3)C1=O)C(=O)N1CCC[C@H](N1)C(=O)OCC(C)(C)C2 (atropisomer, axis not shown; (M)) [Example 11, (2S)-2-[2-[(2R)-2-chloro-2-fluoro-acetyl]-5-oxo-2,6-diazaspiro[3.5]nonan-6-yl]-N-[(7S,13S)-24-fluoro-(20M)-20-[2-[(1S)-1-methoxyethyl]-5-(4-methylpiperazin-1-yl)-3-pyridyl]-17,17-dimethyl-8,14-dioxo-21-(2,2,2-trifluoroethyl)-15-oxa-4-thia-9,21,27,28-tetrazapentacyclo[17.5.2.1^2,5.1^9,13.0^22,26]octacosa-1(25),2,5(28),19,22(26),23-hexaen-7-yl]-3-methyl-butanamide] | 1030 | < 1 | 5 | > 10000 | 45 | 1880
CCn1c(-c2cc(N3CCOCC3)cnc2[C@H](C)OC)c2c3cc(c(F)cc31)-c1csc(n1)C[C@H](NC(=O)[C@H](C(C)C)N(C)C(=O)C1(F)CCN(C(=O)[C@H](F)Cl)CC1)C(=O)N1CCC[C@H](N1)C(=O)OCC(C)(C)C2 (atropisomer, axis not shown; (M)) [Example 54, 1-[(2R)-2-chloro-2-fluoro-acetyl]-N-[(1S)-1-[[(7S,13S)-21-ethyl-24-fluoro-(20M)-20-[2-[(1S)-1-methoxyethyl]-5-morpholino-3-pyridyl]-17,17-dimethyl-8,14-dioxo-15-oxa-4-thia-9,21,27,28-tetrazapentacyclo[17.5.2.1^2,5.1^9,13.0^22,26]octacosa-1(25),2,5(28),19,22(26),23-hexaen-7-yl]carbamoyl]-2-methyl-propyl]-4-fluoro-N-methyl-piperidine-4-carboxamide] | 217 | < 1 | 3 | 303 | 19 | 72
CO[C@@H](C)c1ncc(N2CCN(C)CC2)cc1-c1c2c3c(F)c(ccc3n1CC(F)(F)F)-c1csc(n1)C[C@H](NC(=O)[C@H](C(C)C)N1CCCC3(CCN(C(=O)[C@H](F)Cl)CC3)C1=O)C(=O)N1CCC[C@H](N1)C(=O)OCC(C)(C)C2 (atropisomer, axis not shown; (M)) [Example 20, (2S)-2-[9-[(2R)-2-chloro-2-fluoro-acetyl]-1-oxo-2,9-diazaspiro[5.5]undecan-2-yl]-N-[(7S,13S)-25-fluoro-(20M)-20-[2-[(1S)-1-methoxyethyl]-5-(4-methylpiperazin-1-yl)-3-pyridyl]-17,17-dimethyl-8,14-dioxo-21-(2,2,2-trifluoroethyl)-15-oxa-4-thia-9,21,27,28-tetrazapentacyclo[17.5.2.1^2,5.1^9,13.0^22,26]octacosa-1(25),2,5(28),19,22(26),23-hexaen-7-yl]-3-methyl-butanamide] | 1780 | 3 | 47 | 1240 | 148 | 745
CO[C@@H](C)c1ncc(N2CCN(C)CC2)cc1-c1c2c3cc(c(F)cc3n1CC(F)(F)F)-c1cc(O)cc(c1)C[C@H](NC(=O)[C@H](C(C)C)N(C)C(=O)[C@H]1CCN(C(=O)[C@H](F)Cl)C1)C(=O)N1CCC[C@H](N1)C(=O)OCC(C)(C)C2 (atropisomer, axis not shown; (M)) [Example 8, (3S)-1-[(2R)-2-chloro-2-fluoro-acetyl]-N-[(1S)-1-[[(8S,14S)-25-fluoro-4-hydroxy-(21M)-21-[2-[(1S)-1-methoxyethyl]-5-(4-methylpiperazin-1-yl)-3-pyridyl]-18,18-dimethyl-9,15-dioxo-22-(2,2,2-trifluoroethyl)-16-oxa-10,22,28-triazapentacyclo[18.5.2.1^2,6.1^10,14.0^23,27]nonacosa-1(26),2,4,6(29),20,23(27),24-heptaen-8-yl]carbamoyl]-2-methyl-propyl]-N-methyl-pyrrolidine-3-carboxamide] | 10 | 3 | 43 | 85 | 3 | 1560
CCn1c(-c2cc(N3CCN(CC(F)(F)F)CC3)cnc2[C@H](C)OC)c2c3cc(c(F)cc31)-c1csc(n1)C[C@H](NC(=O)[C@H](C(C)C)N(C)C(=O)C1(F)CCN(C(=O)[C@H](F)Cl)CC1)C(=O)N1CCC[C@H](N1)C(=O)OCC(C)(C)C2 (atropisomer, axis not shown; (M)) [Example 49, 1-[(2R)-2-chloro-2-fluoro-acetyl]-N-[(1S)-1-[[(7S,13S)-21-ethyl-24-fluoro-(20M)-20-[2-[(1S)-1-methoxyethyl]-5-[4-(2,2,2-trifluoroethyl)piperazin-1-yl]-3-pyridyl]-17,17-dimethyl-8,14-dioxo-15-oxa-4-thia-9,21,27,28-tetrazapentacyclo[17.5.2.1^2,5.1^9,13.0^22,26]octacosa-1(25),2,5(28),19,22(26),23-hexaen-7-yl]carbamoyl]-2-methyl-propyl]-4-fluoro-N-methyl-piperidine-4-carboxamide] | 577 | < 1 | 8 | 444 | 15 | 73
CO[C@@H](C)c1ncc(N2CCN(C)CC2)cc1-c1c2c3cc(c(C)cc3n1CC(F)(F)F)-c1csc(n1)C[C@H](NC(=O)[C@H](C(C)C)N(C)C(=O)C1(F)CCN(C(=O)[C@H](F)Cl)CC1)C(=O)N1CCC[C@H](N1)C(=O)OCC(C)(C)C2 (atropisomer, axis not shown; (M)) [Example 9, 1-[(2R)-2-chloro-2-fluoro-acetyl]-4-fluoro-N-[(1S)-1-[[(7S,13S)-(20M)-20-[2-[(1S)-1-methoxyethyl]-5-(4-methylpiperazin-1-yl)-3-pyridyl]-17,17,24-trimethyl-8,14-dioxo-21-(2,2,2-trifluoroethyl)-15-oxa-4-thia-9,21,27,28-tetrazapentacyclo[17.5.2.1^2,5.1^9,13.0^22,26]octacosa-1(25),2,5(28),19,22(26),23-hexaen-7-yl]carbamoyl]-2-methyl-propyl]-N-methyl-piperidine-4-carboxamide] | > 10000 | 7 | 64 | > 10000 | 176 | 505
CO[C@@H](C)c1ncc(N2CCN(C)CC2)cc1-c1c2c3cc(c(F)cc3n1CC(F)(F)F)-c1csc(n1)C[C@H](NC(=O)[C@H](C(C)C)N1CCC[C@@]3(CCN(C(=O)[C@H](F)Cl)C3)C1=O)C(=O)N1CCC[C@H](N1)C(=O)OCC(C)(C)C2 (single isomer, unassigned) [Example 16] | > 10000 | < 1 | 8 | > 10000 | 100 | 2650
CC(C)[C@@H](C(=O)N[C@H]1Cc2cc(O)cc(c2)-c2ccc3c(C(C)(C)C#N)cn(c3c2)CC(C)(C)COC(=O)[C@@H]2CCCN(N2)C1=O)N1CCCC2(CCN(C(=O)CCl)C2)C1=O (stereo partly shown) [RM351, reference compound] | > 10000 |  | 1780 | > 10000 | > 10000 | 2100
CCn1c(-c2cc(N3CCN(CC(F)(F)F)CC3)cnc2[C@H](C)OC)c2c3cc(c(F)cc31)-c1csc(n1)C[C@H](NC(=O)[C@H](C(C)C)N1CCC3(CN(C(=O)[C@H](F)Cl)C3)C1=O)C(=O)N1CCC[C@H](N1)C(=O)OCC(C)(C)C2 (atropisomer, axis not shown; (M)) [Example 37, (2S)-2-[2-[(2R)-2-chloro-2-fluoro-acetyl]-5-oxo-2,6-diazaspiro[3.4]octan-6-yl]-N-[(7S,13S)-21-ethyl-24-fluoro-(20M)-20-[2-[(1S)-1-methoxyethyl]-5-[4-(2,2,2-trifluoroethyl)piperazin-1-yl]-3-pyridyl]-17,17-dimethyl-8,14-dioxo-15-oxa-4-thia-9,21,27,28-tetrazapentacyclo[17.5.2.1^2,5.1^9,13.0^22,26]octacosa-1(25),2,5(28),19,22(26),23-hexaen-7-yl]-3-methyl-butanamide] | 1360 | < 1 |  | 964 | 39 | 159
